Laboratory results as given in PMC2362735, “New semisynthetic vinca alkaloids: chemical, biochemical and cellular studies” (British Journal of Cancer, 1999).

Target: T1, calmodulin (Bos taurus, UniProt P62157)
T1 construct: Calmodulin from bovine brain was purified to homogeneity using Phenyl-Sepharose (Pharmacia) chromatography; from tissue; host or cells: bovine brain
Experiment: Anti-calmodulin activity assay: calmodulin-induced PFK inactivation
Type: biochemical, bovine
Conditions: drug 20 M
Excerpt: The numerous antimitotic drugs already developed and therapeu- tically used for a large number of pathologies belong to different classes based on their chemical structure and other distinctive features. Antimitotic drugs usually target the tubulin/microtubule network of the cytoskeleton that is formed by assembly of cyto- plasmic tubulin dimers. The stability of the different microtubular structures varies considerably; some of their functions depend on their lability. The lability is augmented by the extreme sensitivity to various drugs. Several synthetic and natural compounds interact specifically with tubulin and/or microtubule, fundamentally destroying its dynamic character and leading to cell death. […] Because of their extensive clinical use, it is important to synthesize additional agents having at least the same biological activity. […] Nevertheless, it is unclear yet how the anti-calmodulin activity of these drugs is related to their desired and undesired pharmacological effects. […] The synthesis of the KAR derivatives are presented. […] Taxol, GTP and trifluoperazine were purchased from Sigma. All organic reagents for synthesis of the new compounds were obtained from Aldrich and were of the highest grade. All other chemicals were reagent grade commercial preparations. […] Tubulin was stored in 1 M sucrose, 10 mM sodium phosphate buffer, 0.5 mM magnesium chloride and 0.1 mM GTP, pH 7.0, at -80C and dialysed against the appropriate buffer before use. […] PFK, aldolase and glycerol-3-phosphate dehydrogenase- triosephosphate isomerase purified from rabbit skeletal muscle were purchased in ammonium sulphate suspensions from Sigma or Boehringer. The enzyme suspensions were centrifuged at 10 000g for 5 min. The pellets were suspended in the appropriate buffer, then the enzymes were gel filtered or dialysed in the same buffer to remove ammonium sulphate. […] (Figure 1B; R1 , CH3; R2 , CH2 CH2 Cl). […] After 2 h incubation at room temperature, 200 ml dried toluene was added to the reaction mixture. […] The mixture was stirred for 30 min. After separation of the organic phase, it was washed with water (3 x 30 ml) and dried with potassium sulphate and evaporated on a water bath of 35-40C at 20-27 hPa. The resulting material was chromatographed on silica gel (500 g, bead size of 0.040- 0.063 mm) column (30 mm x 500 mm) using ethyl acetate/ethanol (9:1) mixture as eluent. […] The mixture was kept for 4 h at room temperature and then evaporated on a water bath at 40C under a vacuum of 80 hPa to a final volume of 5-6 ml. […] (Figure 1B, R1 , CHO; R2 , CH2 CH2 Cl). […] Synthesis of KAR-4 [3-allyl-2,4-dioxo-3,5-spiro-oxazolidino- 4-deacetoxy-vinblastine] (Figure 1B; R1 , CH3; R2 , CH2 CH=CH2 ). […] NMR measurements were carried out on a Varian Unity plus-500 instrument (500 MHz for 1H and 125 MHz for 13C) in DMSO. Chemical shifts were determined relative to dTMS = 0.00 p.p.m. 1H and 13C signal assignments were verified by a concerted use of two-dimensional 1H-1H and 1H-13C shift correlation methods (DQFCOSY, HSQC, HMBC) and NOESY experiments. The gradient-enhanced DQFCOSY, HSQC, HMBC and NOESY experiments were recorded by using the standard spectrometer software package. A mixing time of tmix = 0.5 s was used for the NOESY experiments. […] Mass spectrum was recorded on a Kratos MS 80 instrument using FAB.

CC[C@]1(O)C[C@@H]2CN(CCc3c([nH]c4ccccc34)[C@@](C(=O)OC)(c3cc4c(cc3OC)N(C)[C@@H]3[C@]45CCN4CC=C[C@@](CC)(C[C@@]36OC(=O)N(CCCl)C6=O)[C@H]45)C2)C1 [KAR-2, 3′-(β-chloroethyl)-2′,4′-dioxo-3,5′-spiro-oxazolidino-4-deacetoxy-vinblastine]
Effect on calmodulin induced PFK inactivation: Activity (U mg-1) (PFK 1.2 M protomers, calmodulin 3 M, 60 min, without calmodulin 66.6 U mg-1, with calmodulin 8.0 U mg-1): 11.1 U mg-1 | anti-calmodulin activity in the PFK assay (in words): does not display anti-calmodulin activity | Anti-calmodulin activity: Efficiency (%) (calculated from the activity data (100% = PFK without calmodulin, 0% = PFK with calmodulin)): 5%
